These results are taken from patent US20110039898A1, “METHOD FOR SCAVENGING FREE RADICALS AND INHIBITING TYROSINASE AND MELANIN” (priority 2009, published 2011).

Data set [1] relates to polyphenol oxidase in the apple juice. Kind of data set: Polyphenol oxidase inhibition assay in apple juice. In kind it is biochemical. To be noted: 5 to 200 μM; absorbance at 420 nm within two hours. As to the method: Polyphenol Oxidase Inhibition Assay
Apples were purchased from local supermarkets. 100 g of apples were peeled, cored and sliced prior to juicing in a blender. The preparation was with 100 ml distilled water filtered through swab and collected by centrifugation 12,000 rpm for 10 min at 4° C. The apple juice obtained was immediately collected 200 μl in a 96 well microplate and mixed nicotinyl hydroxamic acid and N-methyl nicotinic acid hydroxamate iodide (5-200 μM).

For a further data set, the system named is melanoma cells (B16-F10). As to the kind of experiment: Cell viability assay (MTT), melanoma cells. In kind it is cell-based. To be noted: 24 hours; for cell toxicity to melanoma cells (B16-F10): under effective concentration to inhibit melanin. As to the method:
(§1) The culture medium was removed from the culture dish filled with cells. The cells were washed using 10 ml of a PBS. The number of the cells was counted by a blood cell counter and diluted to a proper cell concentration. 500 µl/well of the result was added to a 24-well culture plate and cultivated in a 37° C. culture box with 5% CO2 and mist until the cells were stuck on the bottom of the culture dish. After removal of the used culture medium, a fresh drug-containing culture medium with various concentrations was added (the drug was directly added when cells were suspended) and cultivated for 24 hours in a 37° C. culture box with 5% CO2 and mist. After removal of the upper clean solution, the cells were washed two times using a PBS. An MTT solution (500 μg/ml) prepared from the medium was then added to the well and reacted for 4-6 hours in a 37° C. culture box. After removal of the upper clean solution, 100 μl of a DMSO was added until a formazan crystal was dissolved. The absorption of the result was then measured by an ELISA reader (600 nm).

The next data set has as its system human melanocytes. Kind of data set: Cell viability assay (MTT), human melanocytes. The following applies: 24 hours. In kind it is cell-based. The procedure: as §1
The next data set deals with melanin of B16-F10 cells. As to the kind of experiment: Melanin content assay in situ. It counts as cell-based. The following applies: for inhibition of melanin of B16-F10 cells: three days, nicotinyl hydroxamic acid 10, 20, 40, 60 μM. As to the method: Melanin Content Assay In Situ
B16-F10 cells (1×10^5) were placed on a 60 mm culture dish. The nicotinyl hydroxamic acid and the N-methyl nicotinic acid hydroxamate iodide with various concentrations were respectively added and cultivated for three days in a culture box. After removal of the upper clean solution, the cells were washed two times using a PBS. The melanin was dissolved by 1N NaOH (90° C., 30 minutes). The melanin content was then measured (405 nm).

In data set [2] the test system is tyrosinase activity of B16-F10 cells. Kind of data set: Tyrosinase activity assay in situ. The following applies: three days. In kind it is cell-based. The procedure: Tyrosinase Activity Assay In Situ
B16-F10 cells (1×10^5) were placed on a 60 mm culture dish. After 12 hours, an adherent monolayer was formed on the bottom of the culture dish. After removal of the used culture medium, a fresh culture medium was added. A sample solution with various concentrations and/or 50 nM melanocytes stimulating hormone (MSH) were then added and cultivated at 37° C. for three days. After removal of the upper clean solution, the cells were washed two times using a PBS. After the cells were scraped away, protein was extracted and quantitated. One hundred μl of a phosphate buffer (250 mM, pH 6.5), 50 μl of a L-DOPA (10 mM) and 50 μl of a cell extract were sequentially added to a 96-well plate, uniformly mixed and reacted in a 37° C. culture box. The absorption of the result was then measured by an ELISA reader (475 nm).

The test system of data set [3] is melanin content in B16-F10 cells. As to the kind of experiment: Melanin content in B16-F10 cells with ERK and AKT pathway inhibitors. It counts as cell-based. The source says:
The mechanism of inhibition of melanogenesis by nicotinyl hydroxamic acid in B16-F10 cells is further described as follows. ERK and AKT/[…] pathways participate in melanogenesis. PD98059, a MEK selective inhibitor, inhibits the activity of ERK (ERK is activated by MEK). LY294002, a phosphatidylinositol 3-kinase (PI3K) inhibitor, blocks the AKT/PKB pathway. The two inhibitors are used to determine the participation of nicotinyl hydroxamic acid in the ERK and AKT/PKA pathways. […] However, when nicotinyl hydroxamic acid is simultaneously added, the inhibition of melanin thereby is reduced by PD98059 and LY294002.

A further data set has as its system p-AKT. Kind of data set: Western blot of B16-F10 cells: p-AKT. In kind it is cell-based. The source says: (§2) Additionally, according to the analytical results obtained using the western blot method, it was shown that the expression of p-ERK, p-MEK and p-AKT is increased as the concentration of nicotinyl hydroxamic acid is increased. Thus, in addition to inhibition of tyrosinase and adjustment of MITF, nicotinyl hydroxamic acid also reduces the melanin content in cells through ERK and AKT/PKB pathways.

A further data set deals with TRP-1. As to the kind of experiment: Western blot of B16-F10 cells: TRP-1. In kind it is cell-based. The following applies: B16-F10 cells treated 24 hours. The procedure:
(§3) After using nicotinyl hydroxamic acid to treat B16-F10 cells for 24 hours, proteins are extracted and analyzed using the western blot method. The contents of tyrosinase and TRP-1 are reduced as the concentration of nicotinyl hydroxamic acid is increased.

The test system of a further data set is MITF. As to the kind of experiment: Western blot of B16-F10 cells: MITF. It counts as cell-based. As to the method:
as §3
Microphthalmia-associated transcription factor (MITF) is a transcription factor controlling tyrosinase and TRP-1 expression in cells, with a helix-loop-helix leucine zipper structure, capable of regulation of melanogenesis and survival and proliferation of melanocytes.
A general note: A western blot detects proteins with antibodies after separation by electrophoresis.

The test system of another data set is p-ERK. As to the kind of experiment: Western blot of B16-F10 cells: p-ERK. It counts as cell-based.
Text: as §2

The subject of a further data set is p-MEK. As to the kind of experiment: Western blot of B16-F10 cells: p-MEK. It counts as cell-based.
Text: as §2

Another data set deals with tyrosinase. Kind of data set: Western blot of B16-F10 cells: tyrosinase. In kind it is cell-based. To be noted: B16-F10 cells treated 24 hours. As to the method: as §3
Another data set has as its system TRP-2. Kind of data set: Western blot of B16-F10 cells: TRP-2. It counts as cell-based. To be noted: B16-F10 cells treated 24 hours.
The mark [4] stands for this setting: concentration increased to 5 mM.

For `C[n+]1cccc(C(=O)NO)c1` [N-methyl nicotinic acid hydroxamate iodide], the “inhibition of polyphenol oxidase in the apple juice” value in data set [1] is on record as “effectively inhibited”. Moreover, the “viability of B16-F10 melanoma cells” value in the data set on melanoma cells (B16-F10) (setting [4]) is given as “still alive”. For the same compound, in the data set on melanoma cells (B16-F10), the “cell toxicity to melanoma cells (B16-F10)” value is listed as “low cell toxicity”. In addition, the “viability of human melanocytes” value with human melanocytes (setting [4]) is “still alive”. Further, the “inhibition of melanin of B16-F10 cells” value in the data set on melanin of B16-F10 cells (MSH added) and with melanin of B16-F10 cells (MSH not added) was “achieved the same effects” throughout. The “tyrosinase activity of B16-F10 cells as concentration was increased” value in data set [2] (MSH added (50 nM)) and in data set [2] (no MSH added) was “decreased” in each case.
Turning to `COc1cccc(-c2cc(=O)c3ccccc3o2)c1N` [PD98059, reference compound], the “effect on melanin content in cells” value in data set [3] (inhibitor added) is “increases melanin content”.
For `O=c1cc(CO)occ1O` [kojic acid, reference compound], the “concentration added to achieve the same inhibition effect on melanin content” value in the data set with melanin of B16-F10 cells (MSH added) and in the data set with melanin of B16-F10 cells (no MSH added) was 1.5 mM throughout.
As to `O=C(NO)c1cccnc1` [nicotinyl hydroxamic acid], the “inhibition of polyphenol oxidase in the apple juice” value in data set [1] is reported as “effectively inhibited”. For the same compound, the “cell toxicity to melanoma cells (B16-F10)” value with melanoma cells (B16-F10) is on record as “low cell toxicity”. In addition, the “expression of p-AKT as concentration is increased” value in the data set with p-AKT is “increased”. Moreover, in the data set with TRP-1, the “content of TRP-1 as concentration is increased” value is given as “reduced”. For the same compound, the “content of MITF as concentration is increased” value with MITF is on record as “reduced”. The “viability of human melanocytes” value in the data set with human melanocytes (concentration increased to 1 mM) was “still alive”. In addition, the “expression of p-ERK as concentration is increased” value with p-ERK was “increased”. In addition, the results for the “concentration added to achieve the same inhibition effect on melanin content” value in the data set on melanin of B16-F10 cells (MSH added) and with melanin of B16-F10 cells (no MSH added) were 0.04 mM and 0.06 mM, respectively. Further, the “inhibition of melanin of B16-F10 cells” value in the data set on melanin of B16-F10 cells (MSH added) and in the data set with melanin of B16-F10 cells (MSH not added) was “effectively inhibited” each time. In addition, in the data set with p-MEK, the “expression of p-MEK as concentration is increased” value was “increased”. The “tyrosinase activity of B16-F10 cells as concentration was increased” value in data set [2] (MSH added (50 nM)) and in data set [2] (no MSH added) was “decreased” throughout. Moreover, the “content of tyrosinase as concentration is increased” value in the data set on tyrosinase was “reduced”. Further, the “inhibition of melanin when PD98059 and LY294002 are simultaneously added” value in data set [3] (with PD98059 and LY294002) is recorded as “reduced”. For the same compound, the “content of TRP-2 versus concentration” value with TRP-2 is recorded as “irrelevant to the concentration”.
